Assay results reported in ChEMBL document CHEMBL3885861, “Open TG-GATES”.

Organism: Rattus norvegicus
Assay: Open TG-GATES - Regimen: Single
Assay type: toxicity, organism-based, Sprague-Dawley
Set-up: regimen Single, gender Male, age 6 weeks
Conditions: in vivo, po, 0 mg/kg, route gavage, dose level Control; for APTT / Bas / Eos / Fbg / Hb / Ht / Lym / MCH / MCHC / MCV / Mono / Neu / PT / Plat / RBC / Ret / WBC: tissue Blood; for KIDNEY_L / KIDNEY_R / KIDNEY_TOTAL: tissue Kidney; for LIVER: tissue Liver; for A/G / ALP / ALT / AST / BUN / CRE / Ca / Cl / DBIL / GLC / IP / K / LDH / Na / PL / RALB / TBIL / TC / TG / TP / gamma-GTP: tissue Plasma

## NNC(=O)c1ccncc1 [ISONIAZID]
3 h
  TERMINAL_BW: 225.5 g
  APTT: 18.5 s
  Bas: 0%
  Eos: 1%
  Fbg: 232.2 mg/dL
  Hb: 13.5 g/dL
  Ht: 37.8%
  Lym: 80%
  MCH: 21.5 pg
  MCHC: 35.7%
  MCV: 60.3 fL
  Mono: 3%
  Neu: 15.6%
  PT: 11.8 s
  Plat: 121.9 x10_4/uL
  RBC: 627.2 x10_4/ul
  Ret: 8.1%
  WBC: 82.1 x10_2/uL
  KIDNEY_L: 1 g
  KIDNEY_R: 0.9 g
  KIDNEY_TOTAL: 1.9 g
  LIVER: 10.5 g
  A/G: 1.5
  ALP: 945.2 IU/L
  ALT: 34.2 IU/L
  AST: 66 IU/L
  BUN: 10 mg/dL
  CRE: 0.4 mg/dL
  Ca: 10.9 mg/dL
  Cl: 104.2 meq/L
  DBIL: 0.066 mg/dL
  GLC: 195.6 mg/dL
  IP: 8.8 mg/dL
  K: 4.1 meq/L
  LDH: 160 IU/L
  Na: 141.8 meq/L
  PL: 148.2 mg/dL
  RALB: 3.3 g/dL
  TBIL: 0.1 mg/dL
  TC: 80.8 mg/dL
  TG: 90.6 mg/dL
  TP: 5.5 g/dL
  gamma-GTP: 1.2 IU/L
6 h
  TERMINAL_BW: 221.6 g
  APTT: 19.9 s
  Bas: 0%
  Eos: 1%
  Fbg: 230 mg/dL
  Hb: 13.5 g/dL
  Ht: 37.6%
  Lym: 80.8%
  MCH: 21.8 pg
  MCHC: 35.8%
  MCV: 60.9 fL
  Mono: 3%
  Neu: 14.6%
  PT: 12.3 s
  Plat: 125.3 x10_4/uL
  RBC: 618.4 x10_4/ul
  Ret: 8%
  WBC: 96.3 x10_2/uL
  KIDNEY_L: 1 g
  KIDNEY_R: 0.9 g
  KIDNEY_TOTAL: 1.9 g
  LIVER: 9.2 g
  A/G: 1.6
  ALP: 976.8 IU/L
  ALT: 31.2 IU/L
  AST: 64.8 IU/L
  BUN: 8.8 mg/dL
  CRE: 0.4 mg/dL
  Ca: 10.4 mg/dL
  Cl: 104.2 meq/L
  DBIL: 0.068 mg/dL
  GLC: 197.6 mg/dL
  IP: 9.8 mg/dL
  K: 4.1 meq/L
  LDH: 156.6 IU/L
  Na: 141.2 meq/L
  PL: 133.8 mg/dL
  RALB: 3.3 g/dL
  TBIL: 0.1 mg/dL
  TC: 78.4 mg/dL
  TG: 52.8 mg/dL
  TP: 5.4 g/dL
  gamma-GTP: 1.2 IU/L
9 h
  TERMINAL_BW: 220.2 g
  APTT: 17.3 s
  Bas: 0%
  Eos: 0.8%
  Fbg: 221.8 mg/dL
  Hb: 13.5 g/dL
  Ht: 37.7%
  Lym: 79.2%
  MCH: 21.8 pg
  MCHC: 35.7%
  MCV: 61.1 fL
  Mono: 2%
  Neu: 16.6%
  PT: 12.5 s
  Plat: 120.7 x10_4/uL
  RBC: 617.4 x10_4/ul
  Ret: 7.7%
  WBC: 101.6 x10_2/uL
  KIDNEY_L: 0.9 g
  KIDNEY_R: 0.9 g
  KIDNEY_TOTAL: 1.9 g
  LIVER: 8.6 g
  A/G: 1.7
  ALP: 780 IU/L
  ALT: 31.4 IU/L
  AST: 70 IU/L
  BUN: 9.6 mg/dL
  CRE: 0.4 mg/dL
  Ca: 10.5 mg/dL
  Cl: 104.6 meq/L
  DBIL: 0.066 mg/dL
  GLC: 200.6 mg/dL
  IP: 9.7 mg/dL
  K: 3.8 meq/L
  LDH: 237.4 IU/L
  Na: 142.2 meq/L
  PL: 137.6 mg/dL
  RALB: 3.4 g/dL
  TBIL: 0.1 mg/dL
  TC: 74.8 mg/dL
  TG: 54.6 mg/dL
  TP: 5.4 g/dL
  gamma-GTP: 1 IU/L
24 h
  TERMINAL_BW: 234.8 g
  APTT: 18.6 s
  Bas: 0.4%
  Eos: 1.2%
  Fbg: 217.8 mg/dL
  Hb: 13.8 g/dL
  Ht: 38%
  Lym: 76%
  MCH: 22.6 pg
  MCHC: 36.2%
  MCV: 62.3 fL
  Mono: 2.8%
  Neu: 19.2%
  PT: 11.5 s
  Plat: 127.6 x10_4/uL
  RBC: 610 x10_4/ul
  Ret: 7.2%
  WBC: 106 x10_2/uL
  KIDNEY_L: 1 g
  KIDNEY_R: 1 g
  KIDNEY_TOTAL: 2 g
  LIVER: 10.9 g
  A/G: 1.6
  ALP: 930.6 IU/L
  ALT: 34 IU/L
  AST: 68.8 IU/L
  BUN: 14.8 mg/dL
  CRE: 0.4 mg/dL
  Ca: 10.9 mg/dL
  Cl: 103.8 meq/L
  DBIL: 0.058 mg/dL
  GLC: 191 mg/dL
  IP: 7.7 mg/dL
  K: 4.2 meq/L
  LDH: 190.8 IU/L
  Na: 141.8 meq/L
  PL: 154 mg/dL
  RALB: 3.5 g/dL
  TBIL: 0.1 mg/dL
  TC: 80 mg/dL
  TG: 114 mg/dL
  TP: 5.6 g/dL
  gamma-GTP: 1 IU/L
